Measurements reported in US9828368B2 (MERCK SHARP & DOHME CORP., priority 2013, dated 2017).
pIC50: −log10 of the molar value.

Key:
[1] = molecular target: hOX1R (Homo sapiens, UniProt O43613); test: FLIPR Ca2+ flux assay, hOX1R; assay type: cell-based; settings: CHO cells; agonist 70 pM Ala-6,12 orexin-A; rat orexin-1 receptor; read-out: hOX1R FLIPR IC50
[2] = molecular target: human orexin-2 receptor (Homo sapiens (Human), UniProt O43614); test: FLIPR Ca2+ flux assay, hOX2R; assay type: cell-based; settings: CHO cells expressing human orexin-2 receptor; agonist 70 pM Ala-6,12 orexin-A
Sequence of human orexin-2 receptor (O43614 whole entry): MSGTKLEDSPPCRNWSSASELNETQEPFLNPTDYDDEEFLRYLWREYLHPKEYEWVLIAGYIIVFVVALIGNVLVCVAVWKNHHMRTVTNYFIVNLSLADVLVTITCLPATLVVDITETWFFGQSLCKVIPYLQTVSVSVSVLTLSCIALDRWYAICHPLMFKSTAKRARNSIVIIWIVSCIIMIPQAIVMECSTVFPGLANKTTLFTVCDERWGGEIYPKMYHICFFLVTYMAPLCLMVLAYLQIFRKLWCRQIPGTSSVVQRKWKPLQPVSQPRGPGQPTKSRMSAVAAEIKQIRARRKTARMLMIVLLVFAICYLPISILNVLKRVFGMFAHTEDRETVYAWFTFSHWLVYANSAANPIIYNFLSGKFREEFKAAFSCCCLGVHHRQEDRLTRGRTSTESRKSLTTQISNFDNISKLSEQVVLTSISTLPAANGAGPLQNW
Procedure: In a typical experiment the OX1 and OX2 receptor antagonistic activity of the compounds of the present invention was determined in accordance with the following experimental method. For intracellular calcium measurements, Chinese hamster ovary (CHO) cells expressing the rat orexin-1 receptor or the human orexin-2 receptor, are grown in Iscove's modified DMEM containing 2 mM L-glutamine, […], 1% hypoxanthine-thymidine supplement, 100 U/ml penicillin, 100 μg/ml streptomycin and 10% heat-inactivated fetal calf serum (FCS). The cells are seeded at 20,000 cells/well into Becton-Dickinson black 384-well clear bottom sterile plates coated with poly-D-lysine. All reagents were from GIBCO-Invitrogen Corp. The seeded plates are incubated overnight at 37° C. and 5% CO2. Ala-6,12 human orexin-A as the agonist is prepared as a 1 mM stock solution in 1% bovine serum albumin (BSA) and diluted in assay buffer (HBSS containing 20 mM HEPES, 0.1% BSA and 2.5 mM probenecid, pH7.4) for use in the assay at a final concentration of 70 pM. Test compounds are prepared as 10 mM stock solution in DMSO, then diluted in 384-well plates, first in DMSO, then assay buffer. On the day of the assay, cells are washed 3 times with 100 μl assay buffer and then incubated for 60 min (37° C., 5% CO2) in 60 μl assay buffer containing 1 μM Fluo-4AM ester, 0.02% pluronic acid, and 1% BSA. The dye loading solution is then aspirated and cells are washed 3 times with 100 μl assay buffer. 30 μl of that same buffer is left in each well. Within the Fluorescent Imaging Plate Reader (FLIPR, Molecular Devices), test compounds are added to the plate in a volume of 25 μl, incubated for 5 min and finally 25 μl of agonist is added. Fluorescence is measured for each well at 1 second intervals for 5 minutes and the height of each fluorescence peak is compared to the height of the fluorescence peak induced by 70 pM Ala-6,12 orexin-A with buffer in place of antagonist. […] The intrinsic orexin receptor antagonist activity of a compound which may be used in the present invention may be determined by these assays.

Compound	pIC50 [1]	pIC50 [2]
C[C@@H]1CC[C@@H](c2nc(C(C)(C)O)co2)CN1C(=O)c1ccccc1-n1nccn1 [Example 10, (2-(2H-1,2,3-Triazol-2-yl)phenyl)((2R,5R)-5-(4-(2-hydroxypropan-2-yl)oxazol-2-yl)-2-methylpiperidin-1-yl)methanone]	5.57	7.23
C[C@@H]1CC[C@@H](c2nc(C(N)=O)c(-c3ccccc3)o2)CN1C(=O)c1ccccc1-n1nccn1 [Example 61, 2-((3R,6R)-1-(2-(2H-1,2,3-Triazol-2-yl)benzoyl)-6-methylpiperidin-3-yl)-5-phenyloxazole-4-carboxamide]	7.19	6.71
Cc1cccc(-c2coc([C@@H]3CC[C@@H](C)N(C(=O)c4ccccc4-n4nccn4)C3)n2)c1 [Example 7, (2-(2H-1,2,3-Triazol-2-yl)phenyl)((2R,5R)-2-methyl-5-(4-(m-tolyl)oxazol-2-yl)piperidin-1-yl)methanone]	6.59	6.39
Cc1oc([C@@H]2CC[C@@H](C)N(C(=O)c3ccc(F)cc3-n3nccn3)C2)nc1C(C)(C)O [Example 37]	5.87	7.72
C[C@@H]1CC[C@@H](c2nc(C(C)(C)O)c(Cl)o2)CN1C(=O)c1ccccc1-n1nccn1 [Example 52, (2-(2H-1,2,3-Triazol-2-yl)phenyl)((2R,5R)-5-(5-chloro-4-(2-hydroxypropan-2-yl)oxazol-2-yl)-2-methylpiperidin-1-yl)methanone]	5.50	6.58
C[C@@H]1CC[C@@H](c2ncc(-c3ccccc3)o2)CN1C(=O)c1ccccc1-n1nccn1 [Example 74, (2-(2H-1,2,3-Triazol-2-yl)phenyl)((2R, 5R)-2-methyl-5-(5-phenyloxazol-2-yl)piperidin-1-yl)methanone]	7.26	6.95
Cc1oc([C@@H]2CC[C@@H](C)N(C(=O)c3ccccc3-n3ncnn3)C2)nc1C(C)(C)O [Example 24, (2-(2H-Tetrazol-2-yl)phenyl)((2R,5R)-5-(4-(2-hydroxypropan-2-yl)-5-methyloxazol-2-yl)-2-methylpiperidin-1-yl)methanone]	5.42	7.87
Cc1oc([C@@H]2CC[C@@H](C)N(C(=O)c3ccccc3C3(C#N)CC3)C2)nc1C(C)(C)O [Example 20, 1-(2-((2R,5R)-5-(4-(2-Hydroxypropan-2-yl)-5-methyloxazol-2-yl)-2-methylpiperidine-1-carbonyl)phenyl)cyclopropanecarbonitrile]	6.37	7.78
C[C@@H]1CC[C@@H](c2nc(-c3ccccc3)c(-c3ccccc3)o2)CN1C(=O)c1ccccc1-n1nccn1 [Example 77, (2-(2H-1,2,3-Triazol-2-yl)phenyl)((2R,5R)-5-(4,5-diphenyloxazol-2-yl)-2-methylpiperidin-1-yl)methanone]	6.35	6.29
CC(O)c1nc([C@@H]2CC[C@@H](C)N(C(=O)c3ccccc3-n3nccn3)C2)oc1-c1ccccc1 (single isomer, unassigned) [Example 65]	6.81	6.89
COCCc1ccccc1C(=O)N1C[C@H](c2nc(C(C)(C)O)c(C)o2)CC[C@H]1C [Example 41, ((2R,5R)-5-(4-(2-Hydroxypropan-2-yl)-5-methyloxazol-2-yl)-2-methylpiperidin-1-yl)(2-(2-methoxyethyl)phenyl)methanone]	< 5.00	7.24
C[C@@H]1CC[C@@H](c2nc(C3CC3)co2)CN1C(=O)c1ccccc1-n1nccn1 [Example 4, (2-(2H-1,2,3-Triazol-2-yl)phenyl)((2R,5R)-5-(4-cyclopropyloxazol-2-yl)-2-methylpiperidin-1-yl)methanone]	6.15	7.33
Cc1oc([C@@H]2CC[C@@H](C)N(C(=O)c3cccc4ccnn34)C2)nc1C(C)(C)O [Example 23, ((2R,5R)-5-(4-(2-Hydroxypropan-2-yl)-5-methyloxazol-2-y1)-2-methylpiperidin-1-yl)(pyrazolo[1,5-a]pyridin-7-yl)methanone]	< 5.00	6.96
C[C@@H]1CC[C@@H](c2ncc(C(C)(C)C)o2)CN1C(=O)c1ccccc1-n1nccn1 [Example 73, (2-(2H-1,2,3-Triazol-2-yl)phenyl)((2R,5R)-5-(5-(tert-butyl)oxazol-2-yl)-2-methylpiperidin-1-yl)methanone]	6.82	7.52
C[C@@H]1CC[C@@H](c2nc(CO)c(-c3ccccc3)o2)CN1C(=O)c1ccccc1-n1nccn1 [Example 57, (2-(2H-1,2,3-Triazol-2-yl)phenyl)((2R,5R)-5-(4-(hydroxymethyl)-5-phenyloxazol-2-yl)-2-methylpiperidin-1-yl)methanone]	6.43	5.93
COCc1nc([C@@H]2CC[C@@H](C)N(C(=O)c3ccccc3-n3nccn3)C2)oc1-c1ccccc1 [Example 59, (2-(2H-1,2,3-Triazol-2-yl)phenyl)((2R,5R)-5-(4-(methoxymethyl)-5-phenyloxazol-2-yl)-2-methylpiperidin-1-yl)methanone]	7.00	6.46
C[C@@H]1CC[C@@H](c2nc(CC(C)(C)O)c(-c3ccccc3)o2)CN1C(=O)c1ccccc1-n1nccn1 [Example 68, (2-(2H-1,2,3-Triazol-2-yl)phenyl)((2R,5R)-5-(4-(2-hydroxy-2-methylpropyl)-5-phenyloxazol-2-yl)-2-methylpiperidin-1-yl)methanone]	7.02	7.21
C[C@@H]1CC[C@@H](c2ncc(C3CC3)o2)CN1C(=O)c1ccccc1-n1nccn1 [Example 76, (2-(2H-1,2,3-Triazol-2-yl)phenyl)((2R, 5R)-5-(5-cyclopropyloxazol-2-yl)-2-methylpiperidin-1-yl)methanone]	6.01	7.48
COC(=O)c1nc([C@@H]2CC[C@@H](C)N(C(=O)c3ccccc3-n3nccn3)C2)oc1Br [Example 12, Methyl 2-((3R,6R)-1-(2-(2H-1,2,3-Triazol-2-yl)benzoyl)-6-methylpiperidin-3-yl)-5-bromooxazole-4-carboxylate]	6.06	7.52
Cc1oc([C@@H]2CC[C@@H](C)N(C(=O)c3ccccc3OC(F)(F)F)C2)nc1C(C)(C)O [Example 28, ((2R,5R)-5-(4-(2-Hydroxypropan-2-yl)-5-methyloxazol-2-yl)-2-methylpiperidin-l-yl)(2-(trifluoromethoxy)phenyl)methanone]	5.85	7.85
Cc1oc([C@@H]2CC[C@@H](C)N(C(=O)c3ccsc3-n3nccn3)C2)nc1C(C)(C)O [Example 25, (2-(2H-1,2,3-Triazol-2-yl)thiophen-3-yl)((2R,5R)-5-(4-(2-hydroxypropan-2-yl)-5-methyloxazol-2-yl)-2-methylpiperidin-1-yl)methanone]	5.78	7.97
CC[C@](C)(O)c1nc([C@@H]2CC[C@@H](C)N(C(=O)c3ccccc3-n3nccn3)C2)oc1C [Example 45, (2-(2H-1,2,3-triazol-2-yl)phenyl)((2R,5R)-5-(4-((S)-2-hydroxybutan-2-yl)-5-methyloxazol-2-yl)-2-methylpiperidin-1-yl)methanone]	5.91	7.62
CC(C)c1oc([C@@H]2CC[C@@H](C)N(C(=O)c3ccccc3-n3nccn3)C2)nc1C(C)(C)O [Example 15, (2-(2H-1,2,3-Triazol-2-yl)phenyl)((2R,5R)-5-(4-(2-hydroxypropan-2-yl)-5-isopropyloxazol-2-yl)-2-methylpiperidin-1-yl)methanone]	8.00	7.77
C[C@@H]1CC[C@@H](c2nc(-c3cccc(F)n3)co2)CN1C(=O)c1ccccc1-n1nccn1 [Example 6, (2-(2H-1,2,3-Triazol-2-yl)phenyl)((2R, 5R)-5-(4-(6-fluoropyridin-2-yl)oxazol-2-yl)-2-methylpiperidin-1-yl)methanone]	6.17	6.82
((2R,5R)-5-(4-(2-Hydroxypropan-2-yl)-5- methyloxazol-2-yl)-2-methylpiperidin-1-yl)(2- methoxyphenyl)methanone [Example 30]	< 5.00	7.53
C[C@@H]1CC[C@@H](c2nc(CCO)c(-c3ccccc3)o2)CN1C(=O)c1ccccc1-n1nccn1 [Example 70, (2-(2H-1,2,3-Triazol-2-yl)phenyl)((2R,5R)-5-(4-(2-hydroxyethyl)-5-phenyloxazol-2-yl)-2-methylpiperidin-1-yl)methanone]	7.42	7.23
